Laboratory results taken from patent publication US11944624B2, “Peptide and small molecule agonists of EphA and their uses” (CASE WESTERN RESERVE UNIVERSITY, priority 2017, dated 2024).
“Also recorded” adds a separate entry of the source.

Legend:
EphA2 [1] = target: T1, EphA2 (Homo sapiens, UniProt P29317); test: EphA2 activation in MDA-MB-231-A2 cells (phosphorylated/total EphA2, Example 2); type: cell-based; parameters: expressed in transfected cells; host or cells: MDA-MB-231 (MDA-231-A2 / MDA-MB-231-A2), puromycin selected; conditions: MDA-MB-231-A2 cells, 2, 10 and 50 μM, 30 min
Description: To evaluate the compounds, we utilized a MDA-MB-231 breast cancer cell line which overexpresses EphA2 receptor (MDA-MB-231-A2). The ratio of phosphorylated EphA2 protein over total EphA2 protein was measured after treatment with the various compounds as the readout for receptor activation. All the compounds were examined with doses of 2, 10, and 50 μM, and we used 50 μM Doxazosin and 0.5% DMSO as the positive and negative control, respectively (FIG. 27). […] Inspired by the dimer design, we also generated dimer structure based on the piperazine ring as the core as illustrated by compounds 25 and 26.
MDA-MB-231 EphA2-overexpressing cells were plated in 12-well dishes at a density of 100,000 cells/well and grown for 24 hours prior to stimulation with appropriate compounds and ephrins for 30 min and 10 min, respectively. Compounds were prepared in DMSO at 200 times the final concentrations and 0.5% DMSO was used as vehicle control. Following treatment, cells were washed and lysed in modified RIPA Buffer (20 mM Tris-HCl pH 7.4, 20 mM NaF, 150 mM NaCl, 10% glycerol, 0.1% SDS, 0.5% DCA, 2 mM EDTA, 1% Triton X-100, 2 mM Na3VO4, and protease inhibitors, including 1 mM phenylmethylsulphonyl fluoride, and 2 μg/ml each of aprotinin and leupeptin) for 20 min, followed by immunoprecipitation. For immunoprecipitation, lysates were combined with 10 μg of ephrin-A1-Fc and 10-15 μl of Gamma-Bind Protein G beads (GE Healthcare Bioscience, Pittsburgh, PA) and rotated for 3 hours at 4° C. 10 μg of human unconjugated Fc was used as a negative control. Beads were pelleted at 9,000 rpm for 2 min at 4° C., and washed twice with 1 ml of IP Wash Buffer (20 mM Tris, pH 7.4, 10% glycerol, 50 mM NaCl, 0.2% Triton X-100, 0.5 mM Na3VO4, 0.5 mM PMSF). All wash buffer was removed and beads were resuspended in 25 μl of 4× LDS Loading Buffer (Thermo Fisher, Grand Island, NY) with 4 μl of 10× Bolt Sample Reducing Agent (Thermo Fisher), followed by Western Blotting. Samples were boiled 5 min and run on 4-12% Bis-Tris Plus gels (Thermo Fisher), followed by transfer to Immobilon-P PVDF membranes (Millipore, Billerica, MA). Membranes were blocked 1 hr at room temperature in 3% BSA in TBS containing 0.05% Tween-20 (TBS-T) followed by overnight incubation with pEphA/B (1:500) and EphA2 (Santa Cruz) (1:1000) primary antibodies. Membranes were washed in TBS-T and incubated with goat anti-rabbit-HRP (1:5000) secondary antibody 1 hr at room temperature, followed by washing and developing with Luminol Reagent (Santa Cruz). Band intensities were quantified using Quantity One software (Bio-Rad, Hercules, CA).

MDA-MB-231 cells = test: Clonogenic (colony formation) assay; type: cell-based; conditions: 0.08-10 μM, 14 days
Description: MDA-MB-231 cells (1000 cells/well) were seeded in 12-well plates and cultured for 24 h, followed by treatment with various concentrations of the Doxazosin analogs (0, 0.08, 0.4, 2 and 10 μM) in 0.5% DMSO for 14 days. After washing with PBS, colonies were fixed in 4% paraformaldehyde in PBS, washed in 20% methanol, and stained with 0.5% crystal violet.

[2] = target: T2, rat α1a adrenergic receptor (Rattus norvegicus, UniProt P43140); test: Adrenoceptor binding, [3H]-prazosin competition; conditions: [3H]-prazosin 0.25 nM, triplicate, mean±SD; read-out: IC50, α-adrenoceptor binding
T2 construct: Eurofins Panlabs Taiwan, Ltd. (contract assay)
T2 sequence (P43140 1-466): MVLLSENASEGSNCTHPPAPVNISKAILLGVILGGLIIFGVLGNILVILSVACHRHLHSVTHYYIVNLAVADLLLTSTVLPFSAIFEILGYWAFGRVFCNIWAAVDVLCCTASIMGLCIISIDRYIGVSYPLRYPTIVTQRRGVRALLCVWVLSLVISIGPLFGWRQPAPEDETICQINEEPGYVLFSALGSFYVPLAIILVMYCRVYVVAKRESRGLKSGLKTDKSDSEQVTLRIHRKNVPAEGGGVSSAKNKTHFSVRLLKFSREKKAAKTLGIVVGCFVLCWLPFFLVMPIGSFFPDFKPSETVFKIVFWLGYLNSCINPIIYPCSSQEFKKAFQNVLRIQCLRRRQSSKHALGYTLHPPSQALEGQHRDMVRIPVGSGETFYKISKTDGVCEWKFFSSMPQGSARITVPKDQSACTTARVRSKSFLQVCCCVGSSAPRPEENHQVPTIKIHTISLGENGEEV
Description: Analysis of Doxazosin and analog binding to rat α1a adrenergic receptor was performed by Eurofins Panlabs Taiwan, Ltd. (Taiwan). [^3H]-prazosin at 0.25 nM was used as the radioligand. […] Non-specific binding was defined by use of 10 μM phentolamine. Incubations were terminated by vacuum filtration over 0.1% PEI pretreated glass fiber filters and filters were washed for 10 s with ice cold 0.1M NaCl and radioactivity retained on the filters was determined by liquid scintillation spectrometry. IC50 values were determined by a non-linear regression analysis using GraphPad Prism v.5 (GraphPad).

EphA2 [3] = target: T1, EphA2; test: EphA2 internalization in MDA-MB-231 cells (immunofluorescence, Example 2); type: cell-based; parameters: expressed in transfected cells; host or cells: MDA-MB-231 (MDA-231-A2 / MDA-MB-231-A2), puromycin selected; conditions: 1 hr, doses 0.4, 2, 10, 50 μM
Description: This was performed using the MDA-MB-231 cell line. This cell line spreads well in culture, thereby facilitating immunofluorescence detection of cell surface and intracellular EphA2 (FIG. 28). […] MDA-MB-231 cells were plated in 24-well plates on 10 mm square coverslips coated with 10 μg/ml fibronectin and incubated 24-48 hrs before treatment with 50 μM Doxazosin and various doses of compound 27 (0.4, 2, 10, 50 μM) in 0.5% DMSO for 1 hr. As another positive control, cells were treated with 2 μg/ml ephrin-A1-Fc. Cells were then washed with PBS and fixed with 4% paraformaldehyde (Electron Microscopy Sciences, Hatfield, PA) on ice for 10 min, followed by washing and permeabilization with 0.4% NP-40 for 10 min on ice. […] Cells were then incubated in primary mouse EphA2 antibody (D7, 1:100) in 0.1% BSA/PBS for 1 hr at room temperature, washed in PBS and BSA/PBS, followed by incubation in secondary donkey anti-mouse Alexa Fluor 488 antibody (1:300) in BSA/PBS for 30 min at room temperature. Cells were washed in PBS and BSA/PBS, followed by mounting in DAPI Mounting Medium (Electron Microscopy Sciences). Images were taken with a Leica microscope.

T1 sequence (P29317 24-976): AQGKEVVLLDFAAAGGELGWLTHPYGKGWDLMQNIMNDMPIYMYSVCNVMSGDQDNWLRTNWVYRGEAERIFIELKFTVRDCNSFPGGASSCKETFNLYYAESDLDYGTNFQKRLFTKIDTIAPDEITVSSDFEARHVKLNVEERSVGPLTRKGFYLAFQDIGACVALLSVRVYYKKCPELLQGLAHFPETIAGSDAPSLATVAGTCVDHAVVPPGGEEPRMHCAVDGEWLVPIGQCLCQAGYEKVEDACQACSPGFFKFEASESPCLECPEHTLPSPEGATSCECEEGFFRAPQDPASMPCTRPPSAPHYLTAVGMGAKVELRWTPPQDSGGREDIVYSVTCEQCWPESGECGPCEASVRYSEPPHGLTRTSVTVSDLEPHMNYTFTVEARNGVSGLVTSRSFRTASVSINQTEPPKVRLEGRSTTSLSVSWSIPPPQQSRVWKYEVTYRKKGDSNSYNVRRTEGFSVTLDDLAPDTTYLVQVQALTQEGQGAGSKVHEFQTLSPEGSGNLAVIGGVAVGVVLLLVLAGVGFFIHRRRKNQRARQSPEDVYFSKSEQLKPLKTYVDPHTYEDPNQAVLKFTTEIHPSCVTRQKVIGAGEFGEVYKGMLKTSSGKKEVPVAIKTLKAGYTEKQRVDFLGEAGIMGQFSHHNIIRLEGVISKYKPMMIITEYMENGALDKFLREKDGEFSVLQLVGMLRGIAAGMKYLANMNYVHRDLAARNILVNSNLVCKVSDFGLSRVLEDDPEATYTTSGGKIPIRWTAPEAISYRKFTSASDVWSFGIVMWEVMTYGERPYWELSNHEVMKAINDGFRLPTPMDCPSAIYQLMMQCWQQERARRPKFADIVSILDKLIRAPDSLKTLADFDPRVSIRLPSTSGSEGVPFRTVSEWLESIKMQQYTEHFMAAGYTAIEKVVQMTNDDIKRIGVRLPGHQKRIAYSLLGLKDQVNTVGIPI

EphA2 activation compared to 50 μM Doxazosin (EphA2 [1])	IC50 [2] [nM]	concentration at which EphA2 internalization happened (EphA2 [3]) [µM]	Structure (SMILES)	inhibition of colony formation (MDA-MB-231 cells)
decreases the activity	–	–	COc1cc2nc(N3CCN(C(=O)c4ccc(Cl)c([N+](=O)[O-])c4)CC3)nc(N)c2cc1OC [Compound 13, (4-(4-amino-6,7-dimethoxyquinazolin-2-yl)piperazin-1-yl)(4-chloro-3-nitrophenyl)methanone]	–
slightly decreased activity	–	–	CCCCCC(=O)N1CCN(c2nc(N)c3cc(OC)c(OC)cc3n2)CC1 [Compound 23, 1-(4-(4-amino-6,7-dimethoxyquinazolin-2-yl)piperazin-1-yl)hexan-1-one]	moderate activity to inhibit the colony formation
significantly decreased activity	–	–	COc1ccc(C(=O)N2CCN(C(=O)c3ccc(OC)cc3)CC2)cc1 [Compound 25, piperazine-1,4-diylbis((4-methoxyphenyl)methanone)]	–
significantly decreased activity	–	–	CSc1ccc(C(=O)N2CCN(C(=O)c3ccc(SC)cc3)CC2)cc1 [Compound 26, piperazine-1,4-diylbis((4-(methylthio)phenyl)methanone)]	–
significantly diminishes the activity	–	–	COc1cc2nc(N3CCN(C(=O)C4COc5ccccc5O4)CC3)nc(NC(C)=O)c2cc1OC (centres unmarked) [Compound 29, N-(2-(4-(2,3-dihydrobenzo[b][1,4]dioxine-2-carbonyl)piperazin-1-yl)-6,7-dimethoxyquinazolin-4-yl)acetamide]	–
significantly diminishes the activity	–	–	COc1cc2nc(N3CCN(C(=O)Cc4ccc(OCc5ccccc5)cc4)CC3)nc(NC(C)=O)c2cc1OC [Compound 30, N-(2-(4-(2-(4-(benzyloxy)phenyl)acetyl)piperazin-1-yl)-6,7-dimethoxyquinazolin-4-yl)acetamide]	–
harm the EphA2 activation	–	–	COc1cc2nc(N3CCN(C(=O)Cc4ccc(OCc5ccccc5)cc4)CC3)nc(N3CCCCC3)c2cc1OC [Compound 31, 2-(4-(benzyloxy)phenyl)-1-(4-(6,7-dimethoxy-4-(piperidin-1-yl)quinazolin-2-yl)piperazin-1-yl)ethanone]	–
harm the EphA2 activation	–	–	COc1cc2nc(N3CCN(C(=O)Cc4ccc(OCc5ccccc5)cc4)CC3)nc(N3CCCC3)c2cc1OC [Compound 32, 2-(4-(benzyloxy)phenyl)-1-(4-(6,7-dimethoxy-4-(pyrrolidin-1-yl)quinazolin-2-yl)piperazin-1-yl)ethanone]	–
diminishes the activity	–	–	CCOc1cc2nc(N3CCN(C(=O)Cc4ccc(OCc5ccccc5)cc4)CC3)nc(N)c2cc1OCC [Compound 33, 1-(4-(4-amino-6,7-diethoxyquinazolin-2-yl)piperazin-1-yl)-2-(4-(benzyloxy)phenyl)ethanone]	–

Structure (SMILES)	EphA2 activation compared to 50 μM Doxazosin (EphA2 [1])	IC50 [2] [nM]	concentration at which EphA2 internalization happened (EphA2 [3]) [µM]	inhibition of colony formation (MDA-MB-231 cells)
COc1cc2nc(N3CCN(C(=O)c4ccc5ccccc5c4)CC3)nc(N)c2cc1OC [Compound 1, (4-(4-amino-6,7-dimethoxyquinazolin-2-yl)piperazin-1-yl)(naphthalen-2-yl)methanone]	higher activity than compound 3; also recorded: did not show a much higher activity than the lead compound Doxazosin	–	–	–
COc1cc2nc(N3CCN(C(=O)c4cccc(-c5ccccc5)c4)CC3)nc(N)c2cc1OC [Compound 2, [1,1′-biphenyl]-3-yl(4-(4-amino-6,7-dimethoxyquinazolin-2-yl)piperazin-1-yl)methanone]	higher activity than compound 3; also recorded: did not show a much higher activity than the lead compound Doxazosin	–	–	–
COc1cc2nc(N3CCN(C(=O)Cc4ccc(OCc5ccccc5)cc4)CC3)nc(N)c2cc1OC [Compound 24, 1-(4-(4-amino-6,7-dimethoxyquinazolin-2-yl)piperazin-1-yl)-2-(4-(benzyloxy)phenyl)ethanone]	potent EphA2 activation; also recorded: improved EphA2 activation compared to Doxazosin	4.28 ± 3.1	–	slightly weaker activity compared to compound 27; also recorded: inhibit the colony formation
COc1cc2nc(N3CCN(C(=O)CCCCCCCCCCC(=O)N4CCN(c5nc(N)c6cc(OC)c(OC)cc6n5)CC4)CC3)nc(N)c2cc1OC [Compound 27, 1,12-bis(4-(4-amino-6,7-dimethoxyquinazolin-2-yl)piperazin-1-yl)dodecane-1,12-dione]	superior activity within the new compound pool; also recorded: significantly increased activity compared to Doxazosin; also recorded: the most active one in the SAR study; also recorded: improved EphA2 activation compared to Doxazosin	2.5 ± 1.62	0.4	inhibited colony formation even at nanomolar concentrations; also recorded: inhibit the colony formation; also recorded: inhibits cancer cell colony formation
COc1cc2nc(N3CCN(C(=O)CCCCC(=O)N4CCN(c5nc(N)c6cc(OC)c(OC)cc6n5)CC4)CC3)nc(N)c2cc1OC [Compound 28, 1,6-bis(4-(4-amino-6,7-dimethoxyquinazolin-2-yl)piperazin-1-yl)hexane-1,6-dione]	does not show any activity to activate EphA2	–	–	–
